Results reported in patent publication US4820834A, “Benzodiazepine analogs” (priority 1987, dated 1989).
Where two headings read alike, the source gives them in different places.

Key:
[1] = target: T1, Gastrin receptor (gastric glands) (Cavia porcellus, UniProt H0VZC5); test: Gastrin Receptor Binding in Guinea Pig Gastric Glands; parameters: species or system guinea pig (male Hartley)
T1 construct: The washed guinea pig gastric glands prepared as above were resuspended; from tissue; host or cells: guinea pig gastric mucosal glands (male Hartley)
T1 sequence (H0VZC5 1-426): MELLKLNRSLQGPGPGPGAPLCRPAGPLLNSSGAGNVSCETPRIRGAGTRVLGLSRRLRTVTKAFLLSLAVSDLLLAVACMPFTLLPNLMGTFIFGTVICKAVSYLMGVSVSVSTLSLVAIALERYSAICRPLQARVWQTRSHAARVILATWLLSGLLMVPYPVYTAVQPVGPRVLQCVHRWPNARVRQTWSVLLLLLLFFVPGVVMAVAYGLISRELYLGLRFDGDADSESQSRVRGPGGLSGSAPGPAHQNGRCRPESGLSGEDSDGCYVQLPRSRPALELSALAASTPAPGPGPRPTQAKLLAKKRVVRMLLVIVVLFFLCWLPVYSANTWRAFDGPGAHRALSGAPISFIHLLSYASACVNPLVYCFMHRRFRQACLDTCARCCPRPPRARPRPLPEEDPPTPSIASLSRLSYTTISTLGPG

[2] = target: T2, CCK receptor (brain, cerebral cortex) (Cavia porcellus, UniProt H0VZC5); test: biochemical; assay type: binding, Male Hartley guinea pigs
T2 construct: Cerebral cortex was dissected and used as a receptor source; from tissue; host or cells: guinea pig cerebral cortex membranes (male Hartley)
T2 sequence (H0VZC5 1-426): T1 sequence (H0VZC5 1-426)
Protocol: 2. CCK Recepto Binding (Brain)
CCK-33 was radiolabeled and the binding was Performed according to the description for the Pancreas method with modifications according to Saito et al., J. Neurochem.
Cerebral cortex was dissected and used as a receptor source. Each gram of fresh guinea pig brain tissue was homogenized in 10 ml of Tris/Trizma buffer with a Brinkman polytron PT-10. The homogenates were centrifuged at 42,000 g for 15 minutes. Pellets were resuspended in Tris Buffer, centrifuged as above and resuspended in 200 volumes of binding assay buffer (10 mM N-2-hydroxyethyl-piperazine-N'-2-ethane sulfonic acid (HEPES), 5 mM MgCl2, 0.25 mg/ml bacitracin, 1 mM ethylene glycol-bis-(β-aminoethylether-N,N'-tetraacetic acid) (EGTA), and 0.4% bovine serum albumin (BSA)). […] All assays were run in duplicate or triplicate. The reaction mixtures were incubated at 25° C. for 2 hours and centrifuged in a Beckman Microfuge (4 minutes) immediately after adding 1 ml of ice-cold incubation buffer. The supernatant was aspirated and discarded, pellets were counted with a Beckman gamma 5000.

[3] = ^125 I-gastrin, 25° C., 30 minutes, read-out: IC50 ^125 I-Gastrin Gastric Glands
[4] = IC50 ^125 I-CCK Brain, guinea pig cerebral cortex, ^125 I-CCK-33, 25° C., 2 hours
[5] = IC50 ^125 I-Gastrin Gastric Glands, 25° C., 30 minutes

SMILES: CC(C)(C)OC(=O)N[C@@H](Cc1ccccc1)C(=O)NC1N=C(c2ccccc2)c2ccccc2NC1=O (mixture of isomers) [Example 82, 3(RS)-(2(S)-tert-Butoxycarbonylamino-3-phenylpropanoyl-amino)-1,3-dihydro-5-phenyl-2H-1,4-benzodiazepin-2-one]
- IC50 [1, 3]: > 100 µM
- IC50 [2, 4]: 12 µM

SMILES: CN1C(=O)C(NC(=O)[C@H](Cc2ccccc2)NC(=O)OC(C)(C)C)N=C(c2ccccc2)c2ccccc21 (mixture of isomers) [Example 83, 3(RS)-(2(S)-tert-Butoxycarbonylamino-3-phenylpropanoyl-amino)-1,3-dihydro-1-methyl-5-phenyl-2H-1,4-benzodi-azepin-2-one]
- IC50 [1, 3]: 26 µM
- IC50 ([2]; guinea pig cerebral cortex, ^125 I-CCK-33, 25° C., 2 hours; read-out: IC50 ^125 I-CCK Brain): 13 µM

SMILES: O=C(NCC1N=C(c2ccccc2F)c2ccccc2NC1=O)OCc1ccccc1 (racemic) [Example 66, 1,3-Dihydro-5-(2'-fluorophenyl)-3(RS)-(benzyloxycarbonyl)aminomethyl-2H-1,4-benzodiazepin-2-one]
- IC50 [1, 5]: 7.4 µM
- IC50 [2, 4]: 100 µM

SMILES: O=C(NCC1N=C(c2ccccc2F)c2ccccc2NC1=O)c1ccsc1 (racemic) [Example 67, 1,3-Dihydro-5-(2'-fluorophenyl)-3(RS)-(3-thiophene-carbonyl)aminomethyl-2H-1,4-benzodiazepin-2-one]
- IC50 [1, 5]: 47 µM
- IC50 [2, 4]: 100 µM

SMILES: O=C(NCC1N=C(c2ccccc2F)c2ccccc2NC1=O)c1cc2ccccc2[nH]1 (racemic) [Example 68, 1,3-dihydro-5-(2-fluorophenyl)-3(RS)-(2-indolecarbonylaminomethyl)-2H-1,4-benzodiazepin-2-one]
- IC50 [1, 5]: > 100 µM
- IC50 [2, 4]: 30 µM

SMILES: O=C1Nc2ccccc2C(c2ccccc2F)=NC1CNCC1N=C(c2ccccc2F)c2ccccc2NC1=O (racemic) [Example 69, 1,3-Dihydro-3'-(RS)-[3'-(RS)-(1,3-dihydro-5-(2'-fluorophenyl)-2H-1,4-benzodiazepin-2-one)-3-yl]methylaminomethyl-5-(2'-fluorophenyl)-2H-1,4-benzodiazepin-2-one]
- IC50 [1, 5]: 350 µM
- IC50 [2, 4]: > 100 µM

SMILES: O=C(NC1N=C(c2ccccc2)c2ccccc2NC1=O)c1cc2ccccc2[nH]1 (racemic) [Example 73, 3(RS)-1,3-Dihydro-(2-indolecarbonylamino)-5-phenyl-2H-1,4-benzodiazepin-2-one]
- IC50 [1, 5]: 4 µM
- IC50 [2, 4]: 8 µM

SMILES: O=C1Nc2ccccc2C(c2ccccc2)=NC1NCCc1c[nH]c2ccccc12 (racemic) [Example 74, 1,3-Dihydro-3(RS)-[2-(3-indolyl)ethyl]amino-5-phenyl-2H-1,4-benzodiazepin-2-one]
- IC50 [1, 5]: > 100 µM
- IC50 [2, 4]: 100 µM

SMILES: O=C(CCc1c[nH]c2ccccc12)NC1N=C(c2ccccc2)c2ccccc2NC1=O (racemic) [Example 75, 3(RS)-[3-(3-indolyl)propionylamino]-1,3-dihydro-5-phenyl-2H-1,4-benzodiazepin-2-one]
- IC50 [1, 5]: 4.7 µM
- IC50 [2, 4]: 100 µM

SMILES: O=C(Cc1c[nH]c2ccccc12)NC1N=C(c2ccccc2)c2ccccc2NC1=O (racemic) [Example 76, 3(RS)-(3-indoleacetylamino)-1,3-dihydro-5-phenyl-2H-1,4-benzodiazepin-2-one]
- IC50 [1, 5]: 32 µM
- IC50 [2, 4]: 11 µM

SMILES: O=C(O)CN1C(=O)C(NC(=O)c2cc3ccccc3[nH]2)N=C(c2ccccc2)c2ccccc21 (racemic) [Example 78, 1-Carboxymethyl-1,3-dihydro-3(RS)-(2-indolearbonyl-amino)-5-phenyl-2H-1,4-benzodiazepin-2-one]
- IC50 [1, 5]: 0.65 µM
- IC50 [2, 4]: 5.5 µM

SMILES: CN1C(=O)C(NC(=O)c2ccc(Cl)cc2)N=C(c2ccccc2F)c2ccccc21 (racemic) [Example 80, 1,3-Dihydro-1-methyl-3(RS)-(4-chlorophenylcarbonyl)-amino-5-(2-fluoroohenyl)-2H-1,4-benzodiazeoin-2-one]
- IC50 [1, 3]: 2.9 µM
- IC50 [2, 4]: 3.4 µM

SMILES: CN1C(=O)C(NC(=O)c2cc3ccccc3[nH]2)N=C(c2ccccc2F)c2ccccc21 (racemic) [Example 81a, 1,3-Dihydro-5-(2-fluorophenyl)-3(RS)-(2-indolecarbonyl-amino)-1-methyl-2H-1,4-benzodiazepin-2-one]
- IC50 [1, 3]: 0.19 µM
- IC50 [2, 4]: 0.3 µM

SMILES: CN1C(=O)C(NC(=O)c2cc3ccccc3n2C)N=C(c2ccccc2F)c2ccccc21 (racemic) [Example 81b, 1,3-Dihydro-5-(2-fluorophenyl)-1-methyl-3(RS)-[2'-(1-methylindole)carbonylamino]-2H-1,4-benzodiazepin-2-one]
- IC50 [1, 5]: 1.6 µM
- IC50 [2, 4]: 1 µM

SMILES: O=C(CCCc1c[nH]c2ccccc12)NC1N=C(c2ccccc2)c2ccccc2NC1=O (racemic) [Example 97, 3(RS)-[4-(3-Indole)butyrylamino]-1,3-dihydro-5-phenyl-2H-1,4-benzodiazepin-2-one]
- IC50 [1, 5]: 200 µM
- IC50 [2, 4]: > 100 µM

SMILES: O=C(NCC1CNc2ccccc2C(c2ccccc2F)=N1)OCc1ccccc1 (racemic) [Example 98, 1,3-Dihydro-3(RS)-(benzyloxycarbonyl)aminomethyl-5-(2-fluorophenyl)-2H-1,4-benzodiazepine]
- IC50 [1, 5]: 86 µM
- IC50 [2, 4]: 100 µM

SMILES: O=C(NCC1CNc2ccccc2C(c2ccccc2F)=N1)c1ccsc1 (racemic) [Example 99, 1,3-Dihydro-3(RS)-[3'-(thiophene)carbonyl]amino-methyl-5-(2-fluorophenyl)-2H-1,4-benzodiazepine]
- IC50 [1, 5]: 80 µM
- IC50 [2, 4]: 74 µM

SMILES: O=C(NCC1CNc2ccccc2C(c2ccccc2F)=N1)c1cc2ccccc2[nH]1 (racemic) [Example 100, 1,3-Dihydro-3(RS)-(2'-indolecarbonyl)aminomethyl-5-(2-fluorophenyl)-2H-1,4-benzodiazepine]
- IC50 ([1]; read-out: IC50 ^125 I-Gastrin Gastric Glands, 25° C., 30 minutes): 22 µM
- IC50 ([2]; read-out: IC50 ^125 I-CCK Brain; guinea pig cerebral cortex, ^125 I-CCK-33, 25° C., 2 hours): 34 µM

SMILES: O=C(NC1N=C(c2ccccc2F)c2ccccc2NC1=O)c1cc2ccccc2[nH]1 (racemic) [Example 105, 1,3-Dihydro-5-(2-fluorophenyl)-3-(RS)-(2-indolecarbonylamino)-2H-1,4-benzodiazeoin-2-one]
- IC50 [1, 5]: 4.6 µM
- IC50 [2, 4]: 3 µM

SMILES: O=C(NC1N=C(c2ccccc2F)c2ccccc2NC1=O)c1ccc([N+](=O)[O-])cc1 (racemic) [Example 106, 1,3-Dihydro-3-(RS)-(4-nitrophenlcarbonyl)amino-5-(2-fluorophenyl)-2H-1,4-benzodiazepin-2-one]
- IC50 [1, 5]: > 10 µM
- IC50 [2, 4]: > 50 µM

SMILES: O=C(NC1N=C(c2ccccc2F)c2ccccc2NC1=O)c1ccsc1 (racemic) [Example 108, 1,3-Dihydro-5-(2-fluorophenyl)-3-(RS)-(3-thiophenecarbonylamino)-2H-1,4-benzodiazepin-2-one]
- IC50 [1, 5]: > 10 µM
- IC50 [2, 4]: > 50 µM

SMILES: O=C(NC1N=C(c2ccccc2)c2ccccc2NC1=O)c1c[nH]c2ccccc12 (racemic) [Example 109, 1,3-Dihydro-3-(RS)-(3-indolecarbonylamino)-5-phenyl-2H-1,4-benzodiazepin-2-one]
- IC50 [1, 5]: 18 µM
- IC50 [2, 4]: 8.4 µM

SMILES: O=C(Cc1cccc2sccc12)NC1N=C(c2ccccc2F)c2ccccc2NC1=O (racemic) [Example 110, 1,3-Dihydro-3-(RS)-(4-thianaPhtheneacetyl)amino-5-(2-fluorophenyl)-2H-1,4-benzodiazepin-2-one]
- IC50 [1, 5]: 3.9 µM
- IC50 [2, 4]: 3.3 µM

SMILES: O=C(O)CN1C(=O)C(NC(=O)c2cc3ccccc3[nH]2)N=C(c2ccccc2F)c2ccccc21 (racemic) [Example 113, 1-Carboxymethyl-1,3-dihydro-5-(2-fluorophenyl)-3(RS)-(2-indolecarbonylamino)-2H-1,4-benzodiazepin-2-one]
- IC50 [1, 5]: 0.39 µM
- IC50 [2, 4]: 5.6 µM

SMILES: CC(C)C[C@@H](NC(=O)OC(C)(C)C)C(=O)N1CC(C[C@H]2N=C(c3ccccc3F)c3ccccc3NC2=O)c2ccccc21 (stereo partly drawn) [Example 22, 1,3-Dihydro-5-(2-fluorophenyl)-3(R)-[3'-β-(1'-t-Boc-D-leucyl)-indolenyl]methyl-2H-1,4-benzodiazepin-2-one]
- IC50 [2, 4]: > 100 µM

SMILES: CC(C)C[C@H](NC(=O)OC(C)(C)C)C(=O)N1CC(C[C@H]2N=C(c3ccccc3F)c3ccccc3NC2=O)c2ccccc21 (stereo partly drawn) [Example 23, 1,3-Dihydro-5-(2-fluorophenyl)-3(R)-[3'-α-(1'-t-Boc-L-leucyl)-indolenyl]methyl-2H-1,4-benzodiazepin-2-one]
- IC50 [2, 4]: > 100 µM
